# Results from PMC4839570, “Novel Anthra[1,2-c][1,2,5]Thiadiazole-6,11-Diones as Promising Anticancer Lead Compounds: Biological Evaluation, Characterization & Molecular Targets Determination” (PLoS ONE, 2016).
# Read-outs that look alike come from different tables or passages of the source.
# How the values were obtained:
# RPMI-8226 = experiment: NCI-60 cytotoxicity screen; format: cell-based
# A549/ATCC = experiment: NCI-60 cytotoxicity screen; format: cell-based
# NCI-H226 = experiment: NCI-60 cytotoxicity screen; format: cell-based
# NCI-H460 = experiment: NCI-60 cytotoxicity screen; format: cell-based
# SF-539 [1] = experiment: NCI-60 cytotoxicity screen; format: cell-based
# SK-MEL-5 = experiment: NCI-60 cytotoxicity screen; format: cell-based
# OVCAR-8 [2] = experiment: NCI-60 cytotoxicity screen; format: cell-based
# NCI/ADR-RES = experiment: NCI-60 cytotoxicity screen; format: cell-based
# TK-10 = experiment: NCI-60 cytotoxicity screen; format: cell-based
# BT-549 = experiment: NCI-60 cytotoxicity screen; format: cell-based
# BSY-1 = experiment: JFCR-39 cytotoxicity screen; format: cell-based
# SF-268 = experiment: JFCR-39 cytotoxicity screen; format: cell-based
# SF-539 [3] = experiment: JFCR-39 cytotoxicity screen; format: cell-based
# HCC2998 = experiment: JFCR-39 cytotoxicity screen; format: cell-based
# KM-12 = experiment: JFCR-39 cytotoxicity screen; format: cell-based
# OVCAR-8 [4] = experiment: JFCR-39 cytotoxicity screen; format: cell-based
# RXF-631L = experiment: JFCR-39 cytotoxicity screen; format: cell-based
# MKN1 = experiment: JFCR-39 cytotoxicity screen; format: cell-based
# MKN45 = experiment: JFCR-39 cytotoxicity screen; format: cell-based
# [5] = tested on: JFCR 39 human cancer cell lines; experiment: JFCR-39 screen, means, ranges and selectivity over panels; format: cell-based; settings: for GI50: Homo sapiens
# Experimental: Both NSC745885 and NSC757963 satisfied the pre-determined threshold inhibition criteria of the NCI-60 One-Dose Screening, so they were tested against the panels of 60 cancer cell lines of NCI (NCI-60) and 39 cancer cell lines of JFCR (JFCR-39), each cell line was tested at five small doses of our compounds. Results are expressed as the 50% growth inhibition concentration (GI50), the 50% lethal concentration (LC50) and the total growth inhibition (TGI), compared to the values of untreated control cells.
# To characterize the selectivity of NSC745885 and NSC757963 further among the different types of cancer, we determined their selectivity ratios towards each cell line subpanel used in the cytotoxicity experiments. […] The promising activity of this compound is evident from the small mean GI50 values. […] The strongest activity was towards the leukemia subpanel and the least one was towards the colon cancer subpanel. […] The strongest activity was towards the melanoma subpanel and the least one was towards the colon cancer subpanel.
# All cell lines were published before.
# [6] = tested on: NF-κB p65 subunit translocation in OVCAR-3 cells; experiment: NF-κB inhibition by immunocytochemical fluorescent staining; format: cell-based, human; settings: 5 μM
# Experimental: Inhibition of NF-κB was detected according to Ataie-Kachoie et al.. Briefly, each group of tested cells were seeded on coverslips treated with HCl and ethanol, and autoclaved prior to use. Immunostaining of the p65 subunit of NF-κB was done by permeabilizing the cells with Triton […], then by treating the cells with anti-NF-κB p65 rabbit monoclonal primary antibody [E379] Abcam # ab32536, followed by Alexa Fluor® 488 Donkey anti-rabbit IgG secondary antibody Biolegend # 406416. Nuclei of cells were stained with 4',6-diamidino-2-phenylindole (DAPI). Images were acquired using fluorescence microscope. Tested cells were divided into five groups which are no treatment control, no primary antibody control, PDTC (50 μM) treated control, NSC745885 (5 μM) and NSC757963 (5 μM) treated controls.
# OVCAR-3 = settings: five-dose
# [7] = Homo sapiens, Fig 7, read-out: mean log10 of the GI50 values (converted)
# [8] = Homo sapiens, five-dose, read-out: GI50
# [9] = Homo sapiens, five-dose, read-out: LC50 (the source's name)
# [10] = Homo sapiens, read-out: LC50 (the source's name)
compound,measurement,setting,value
O=C1c2ccccc2C(=O)c2c1cc(Cl)c1nsnc21 [NSC757963],GI50,RPMI-8226; [7],2.88 µM
same,GI50,RPMI-8226; [8],3.15 µM
same,CC50,RPMI-8226; [9],> 100 µM
same,TGI,RPMI-8226; five-dose,53.2 µM
same,GI50,A549/ATCC; [7],91.2 µM
same,GI50,A549/ATCC; [8],> 100 µM
same,CC50,A549/ATCC; [9],> 100 µM
same,TGI,A549/ATCC; five-dose,>100 µM
same,GI50,NCI-H226; [7],16.2 µM
same,LC50 (concentration killing 50% of cells),"NCI-H226; Homo sapiens, five-dose",53.9 µM
same,GI50,NCI-H226; [8],14.9 µM
same,TGI,NCI-H226; five-dose,28.3 µM
same,GI50,"NCI-H460; Homo sapiens, NCI-460, five-dose, read-out: GI50",30.2 µM
same,CC50,"NCI-H460; Homo sapiens, NCI-460, five-dose, read-out: LC50 (the source's name)",> 100 µM
same,GI50,"NCI-H460; Homo sapiens, NCI-H460, Fig 7, read-out: mean log10 of the GI50 values (converted)",33.1 µM
same,TGI,"NCI-H460; NCI-460, five-dose",>100 µM
same,GI50,SF-539 [1]; [7],9.12 µM
same,GI50,SF-539 [1]; [8],8.23 µM
same,CC50,SF-539 [1]; [9],50.8 µM
same,TGI,SF-539 [1]; five-dose,21.6 µM
same,GI50,SK-MEL-5; [7],6.92 µM
same,GI50,SK-MEL-5; [8],8.48 µM
same,CC50,SK-MEL-5; [9],46.2 µM
same,TGI,SK-MEL-5; five-dose,21.0 µM
same,GI50,OVCAR-8 [2]; [7],1.32 µM
same,GI50,OVCAR-8 [2]; [8],2.39 µM
same,CC50,OVCAR-8 [2]; [9],> 100 µM
same,TGI,OVCAR-8 [2]; five-dose,5.19 µM
same,GI50,NCI/ADR-RES; [7],3.09 µM
same,GI50,NCI/ADR-RES; [8],3.12 µM
same,CC50,NCI/ADR-RES; [9],> 100 µM
same,TGI,NCI/ADR-RES; five-dose,18.8 µM
same,GI50,TK-10; [7],22.9 µM
same,GI50,TK-10; [8],24.1 µM
same,CC50,TK-10; [9],64.1 µM
same,TGI,TK-10; five-dose,39.3 µM
same,GI50,BT-549; [7],15.8 µM
same,GI50,BT-549; [8],18.1 µM
same,CC50,BT-549; [9],58.9 µM
same,TGI,BT-549; five-dose,32.7 µM
same,TGI,BSY-1,3.2 µM
same,GI50,BSY-1; Homo sapiens,1.7 µM
same,CC50,BSY-1; [10],6 µM
same,TGI,SF-268,4.0 µM
same,GI50,SF-268; Homo sapiens,2 µM
same,CC50,SF-268; [10],6.5 µM
same,TGI,SF-539 [3],3.4 µM
same,GI50,SF-539 [3]; Homo sapiens,1.9 µM
same,CC50,SF-539 [3]; [10],6.4 µM
same,TGI,HCC2998,3.5 µM
same,GI50,"HCC2998; Homo sapiens, HCC 2998",1.9 µM
same,CC50,"HCC2998; Homo sapiens, HCC 2998, read-out: LC50 (the source's name)",6.4 µM
same,TGI,KM-12,8.4 µM
same,GI50,"KM-12; Homo sapiens, KM12",3 µM
same,CC50,"KM-12; Homo sapiens, KM12, read-out: LC50 (the source's name)",36 µM
same,TGI,OVCAR-8 [4],4.8 µM
same,GI50,OVCAR-8 [4]; Homo sapiens,2.1 µM
same,CC50,OVCAR-8 [4]; [10],> 100 µM
same,TGI,RXF-631L,3.1 µM
same,GI50,RXF-631L; Homo sapiens,1.7 µM
same,CC50,RXF-631L; [10],5.9 µM
same,TGI,MKN1,3.4 µM
same,GI50,"MKN1; Homo sapiens, MKN-1",1.8 µM
same,CC50,"MKN1; Homo sapiens, MKN-1, read-out: LC50 (the source's name)",6.6 µM
same,TGI,MKN45,5.1 µM
same,GI50,"MKN45; Homo sapiens, MKN-45",2 µM
same,CC50,"MKN45; Homo sapiens, MKN-45, read-out: LC50 (the source's name)",17 µM
same,selectivity ratios of the JFCR subpanels (for NSC745885 except melanoma),[5],less than 3
same,GI50,"[5]; JFCR Breast Cancer, read-out: Mean GI50 of subpanel",1.72 µM
same,GI50,"[5]; JFCR CNS Cancer, read-out: Mean GI50 of subpanel",2 µM
same,GI50,"[5]; JFCR Colon Cancer, read-out: Mean GI50 of subpanel",5.94 µM
same,GI50,"[5]; JFCR Lung Cancer, read-out: Mean GI50 of subpanel",5.86 µM
same,GI50,"[5]; JFCR Melanoma, read-out: Mean GI50 of subpanel",1.9 µM
same,GI50,"[5]; JFCR Ovarian Cancer, read-out: Mean GI50 of subpanel",2.08 µM
same,GI50,"[5]; JFCR Prostate Cancer, read-out: Mean GI50 of subpanel",2.05 µM
same,GI50,"[5]; JFCR Renal Cancer, read-out: Mean GI50 of subpanel",1.75 µM
same,GI50,"[5]; JFCR Stomach Cancer, read-out: Mean GI50 of subpanel",1.97 µM
same,GI50,"[5]; all JFCR subpanels, read-out: mean GI50 values of the JFCR subpanels, range",1.72 to 5.9 µM
same,GI50,"[5]; equivalent to MG-MID, read-out: Mean GI50 of all JFCR-39 cell line panels",3.15 µM
same,GI50,"[5]; five-dose, read-out: JFCR-39 GI50 values, range over cell lines",1 to 21 µM
same,Selectivity ratio,[5]; JFCR Breast Cancer,1.83
same,Selectivity ratio,[5]; JFCR CNS Cancer,1.58
same,Selectivity ratio,[5]; JFCR Colon Cancer,0.53
same,Selectivity ratio,[5]; JFCR Lung Cancer,0.54
same,Selectivity ratio,[5]; JFCR Melanoma,1.66
same,Selectivity ratio,[5]; JFCR Ovarian Cancer,1.52
same,Selectivity ratio,[5]; JFCR Prostate Cancer,1.54
same,Selectivity ratio,[5]; JFCR Renal Cancer,1.8
same,Selectivity ratio,[5]; JFCR Stomach Cancer,1.6
same,nuclear translocation of the NF-κB p65 subunit,[6],significantly capable of preventing the nuclear translocation of the NF-κB p65 subunit
same,TGI,OVCAR-3,3.23 µM
